Measured values reported in US20100190849A1, “Novel Clerodanes and Methods for Repelling Arthropods” (priority 2006, published 2010).
Marks after values point to notes of the source that are not given here.

Tests used:
Aedes aegypti [1] = assay: K & D module mosquito anti-biting (repellent) bioassay; format: in vivo
Experimental: Insects: Ae. aegypti(L.) (red eye Liverpool strain) and An. stephensi Liston used in the study were from colonies maintained at the Walter Reed Army Institute of Research, Silver Spring, Md. […] Adults were maintained in a photoperiod of 12:12 (L:D) h at 27° C. and 80% RH with cotton pads moistened with 10% aqueous sucrose solution. Mated females were 5-15 d old when they were used in bioassays. Ae. aegypti females had access only to water 24 h and neither food nor water for another 24 h before testing. An. stephensi females were provided with water alone 24 h before testing.
Routinely, a six-celled K & D module containing five mosquitoes/cell was positioned over cloth treatments covering the six blood-membrane wells, and trap doors of the K&D modules were opened to expose the treatments to the sets of mosquitoes. After a 3 minute exposure, the number of mosquitoes biting through cloth treatments in each cell was recorded and mosquitoes were prodded back into the cells. […] Experiments were replicated 12, 18, 32, or 56 times. Thus, 60, 90, 160. or 280 mosquitoes were tested against each treatment depending on the experiment, and the proportion of mosquitoes not biting for each treatment was calculated. For each experiment, conducted in different time periods, logistic regression was used to make two sets of one degree-of-freedom contrasts (t-tests): treatments vs. control and treatments vs. SS220 for anti-biting activity within each experiment. The level of significance was set at P=0.05. In all, we conducted 8 biological experiments, and all experiments used Ae. aegypti as the test mosquito with exception of Experiment 7 which used An. stephensi.
Each experiment was replicated 18 times.
Experiments 3, 4, and 5: In each of these experiments, chromatographic fractions of essential oil at their respective percentage compositions of 100 μg essential oil/cm^2 cloth, 100 μg unfractionated essential oil/cm^2 cloth, 25 nmol SS-220/cm^2 cloth and control were compared for mosquito anti-biting activity. Each experiment was replicated 18 times.
(§1) Experiments 6 and 7: These experiments compared the anti-biting activities of SS-220, and plant-isolated callicarpenal, humulene epoxide II, intermedeol and spathulenol at 25 nmol compound/cm^2 cloth versus control against Ae. aegypti and An. stephensi, respectively. Experiment 6 was replicated 32 times and 7 had 56 replicates
The percentage composition of the mixture was a normalized percentage of active components in C. japonica essential oil based upon GC-MS analysis total ion Area % analysis based on largest peaks. Other treatments in the experiment were SS220, callicarpenal, intermedeol, and spathulenol each at 25 nmol/cm^2 cloth versus control.

Anopheles stephensi = assay: as above; format: in vivo; details: 25 nmol compound/cm^2 cloth; for Proportion Not Biting: Exp. 7, 56 replicates; for repellent activity (in words): Experiment 7
Text: Insects: Ae. aegypti(L.) (red eye Liverpool strain) and An. stephensi Liston used in the study were from colonies maintained at the Walter Reed Army Institute of Research, Silver Spring, Md. The insects were reared by feeding larvae ground tropical fish flakes (Tetramin Tropical Fish Flakes, Tetra Sales, Blacksburg, Va., www.tetra-fish.com)(Gerberg, E. j., et al., Manual for mosquito rearing and experimental techniques. Amer. Mosq. Control Assoc. Bull. No. 5 (revised), 1994, AMCA. inc., Lake Charles, La.). Adults were maintained in a photoperiod of 12:12 (L:D) h at 27° C. and 80% RH with cotton pads moistened with 10% aqueous sucrose solution. Mated females were 5-15 d old when they were used in bioassays. Ae. aegypti females had access only to water 24 h and neither food nor water for another 24 h before testing. An. stephensi females were provided with water alone 24 h before testing.
Mosquito Bioassay Methods: Experiment were conducted by using, a six-celled in vitro Klun & Debboun (K & D) module bioassay system developed by klun et al. (Klum J. A., et al., Journal of the American Mosquito Control Association. 21: 64-70 (2005)) for quantitative, evaluation of mosquito-repellent (anti-biting) properties of candidate repellent compounds for human use.
(§2) Plant extracts, fractions, or isolated pure plant derived compounds in 95% ethanol solution were each randomly applied to six-4×5 cm areas of organdy cloth and positioned over the membrane-covered blood. A replicate consisted of six treatments: four test chemicals or extract fractions, 95% ethanol treated cloth as control and unfractionated plant extract or a standard repellent compound, (1S, 2′S)-2-methylpiperidinyl-3-cyclohexen-1-carboxamide (SS220) at 25 nmol/cm^2 cloth. The 25 nmol SS220/cm^2 cloth dose was used as a standard, because it was known from human volunteer and in vitro assays to consistently suppress mosquito biting by 80% or more compared to controls in replicated assays (Klun, J. A., et al., Journal of the American Mosquito Control Association, 21: 64-70 (2005)). […] Routinely, a six-celled K & D module containing five mosquitoes/cell was positioned over cloth treatments covering the six blood-membrane wells, and trap doors of the K&D modules were opened to expose the treatments to the sets of mosquitoes. After a 3 minute exposure, the number of mosquitoes biting through cloth treatments in each cell was recorded and mosquitoes were prodded back into the cells. In Experiment 8, we retained all mosquitoes in their respective K&D module cells, each fitted with a water-moist piece of cotton, and observed the mosquitoes for total mosquito toxic knockdown at 6 min, 1 hr, and 24 hr post-treatment exposure. Experiments were replicated 12, 18, 32, or 56 times. Thus, 60, 90, 160. or 280 mosquitoes were tested against each treatment depending on the experiment, and the proportion of mosquitoes not biting for each treatment was calculated. For each experiment, conducted in different time periods, logistic regression was used to make two sets of one degree-of-freedom contrasts (t-tests): treatments vs. control and treatments vs. SS220 for anti-biting activity within each experiment. The level of significance was set at P=0.05. In all, we conducted 8 biological experiments, and all experiments used Ae. aegypti as the test mosquito with exception of Experiment 7 which used An. stephensi.
as §1

Aedes aegypti [2] = assay: Total mosquito toxic knockdown after K & D module exposure (Experiment 8); format: in vivo; details: Exp. 8, 25 nmol/cm^2 cloth; for Total Knock down 6 min: dead mosquitoes 6 min post-treatment exposure; for Total knock down 1 hr: dead mosquitoes 1 hr post-treatment exposure; for Total knock down 24 hr: dead mosquitoes 24 hr post-treatment exposure
Text: as §2
Experiment 8: This experiment (12 replicates) compared the antibiting activities of a mixture (25 nmol/cm^2 cloth) of 11.5% callicarpenal, 47.1% intermedeol, and 41.4% spathulenol. The percentage composition of the mixture was a normalized percentage of active components in C. japonica essential oil based upon GC-MS analysis total ion Area % analysis based on largest peaks. Other treatments in the experiment were SS220, callicarpenal, intermedeol, and spathulenol each at 25 nmol/cm^2 cloth versus control. In addition to measurement of anti-biting activity, the number of dead mosquitoes observed at three time intervals were recorded for the six treatments.

mosquito = details: 25 nmol SS220/cm^2 cloth; replicated assays; cited from earlier work
An. stephensi = details: in vivo; cited from earlier work
Aedes aegypti [3] = details: in vivo; cited from earlier work
[4] = Table 7, Example 2, synthetic compounds, dose not given
[5] = Exp. 6, 25 nmol compound/cm^2 cloth, 32 replicates
[6] = Exp. 8, 25 nmol/cm^2 cloth, 12 replicates
[7] = Experiment 6, 25 nmol compound/cm^2 cloth
[8] = Table 8, Example 3, synthetic compounds, dose not given

## CC1=CCC[C@@H]2[C@@](C)(CCO)[C@H](C)CC[C@@]12C [13,14,15,16-tetranorclerod-3-en-12-ol]
Aedes aegypti [1]; Example 2, Table 7
  biting deterrent efficacy (in words): equivalent to both callicarpenal and picaridin
Aedes aegypti [1]; [4]
  Proportion Not Biting: 0.68^b

## C[C@H]1CCCCN1C(=O)[C@@H]1CC=CCC1 [SS220, (1S, 2′S)-2-methylpiperidinyl-3-cyclohexen-1-carboxamide, reference compound]
Aedes aegypti [1]; Exp. 1, 25 nmole/cm^2 cloth, 3 minute exposure
  Proportion Not Biting: 0.81^c
Aedes aegypti [1]; Exp. 2, 25 nmole/cm^2 cloth
  Proportion Not Biting: 0.90^c
Aedes aegypti [1]; Exp. 3, 25 nmole/cm^2
  Proportion Not Biting: 1.00^c
Aedes aegypti [1]; Exp. 4, 25 nmole/cm^2
  Proportion Not Biting: 0.92^c
Aedes aegypti [1]; Exp. 5, 25 nmole/cm^2
  Proportion Not Biting: 0.95^c
Aedes aegypti [1]; [5]
  Proportion Not Biting: 0.80^c
Aedes aegypti [1]; [6]
  Proportion Not Biting: 0.67^c
Anopheles stephensi
  Proportion Not Biting: 0.78^c
Aedes aegypti [2]
  Total Knock down 6 min: 0
  Total knock down 1 hr: 1
  Total knock down 24 hr: 2
mosquito
  suppression of mosquito biting compared to controls: ≥ 80%
An. stephensi
  repellent activity compared with bench mark repellents (in words): equivalent to bench mark repellent compounds Deet and Bayrepel
Aedes aegypti [3]
  repellent activity compared with bench mark repellents (in words): more effective than Bayrepel

## C/C1=C\CC(C)(C)/C=C/C[C@@]2(C)O[C@@H]2CC1 [humulene epoxide II]
Aedes aegypti [1]; [5]
  Proportion Not Biting: 0.48^a
Aedes aegypti [1]; [7]
  repellent activity (in words): no repellent activity
Anopheles stephensi
  Proportion Not Biting: 0.58^a
  repellent activity (in words): not different from the control

## CCC(C)OC(=O)N1CCCCC1CCO (stereo not shown) [picaridin, 2-(2-hydroxyethyl)-1piperidinecarboxylic acid 1-methylpropyl ester, reference compound]
Aedes aegypti [1]; [4]
  Proportion Not Biting: 0.62^b

## C=C1CC[C@@H]2[C@H]([C@H]3[C@H]1CC[C@]3(C)O)C2(C)C [spathulenol, (1R,4S,5R,6R,7R)-aromadendr-10(14)-en-4-ol]
Aedes aegypti [1]; [5]
  Proportion Not Biting: 0.73^c
Aedes aegypti [1]; [6]
  Proportion Not Biting: 0.48^b
Aedes aegypti [1]; [7]
  repellent activity (in words): equally active
Aedes aegypti [1]; Experiment 8, 25 nmol/cm^2 cloth
  repellent activity (in words): significantly different from the control
Anopheles stephensi
  Proportion Not Biting: 0.75^c
  repellent activity (in words): as effective as SS220
Aedes aegypti [2]
  Total Knock down 6 min: 1
  Total knock down 1 hr: 2
  Total knock down 24 hr: 0

## C[C@@H]1CC[C@]2(C)[C@H](CC[C@@H]3O[C@@]32C)[C@@]1(C)CC=O [β-epoxycallicarpenal]
Aedes aegypti [1]; Example 3, Table 8
  biting deterrent efficacy (in words): equivalent to callicarpenal
Aedes aegypti [1]; [8]
  Proportion Not Biting: 0.70^b

## α-epoxycallicarpenal
Aedes aegypti [1]; Example 3, Table 8
  biting deterrent efficacy (in words): equivalent to callicarpenal
Aedes aegypti [1]; [8]
  Proportion Not Biting: 0.68^b
